“Also recorded” adds a separate entry of the source.
What was measured:
[1] = tested on: type 1 (non-neuronopathic) Gaucher disease; conditions: type 1 Gaucher disease; cited from earlier work
Gaucher mice [2] = assay: Main treatment experiments: plasma/serum protein electrophoresis and immunofixation (monoclonal immunoglobulin species); type: in vivo, mouse; conditions: for detectable monoclonal paraprotein species: GD mice, early administration from six weeks of age; for M-protein (number of mice): 300 mg/Kg daily months 1.5-12
Experimental: (§1) Plasma/serum protein electrophoresis was carried out in agarose gels using a semiautomatic system (Hydrasys, Sebia) using 10 μL samples of neat serum or plasma. Immunofixation using polyclonal anti-sera raised against murine heavy and light immunoglobulin chains was conducted with diluted serum samples as previously reported.
(§2) The non-parametric Mann-Whitney test was used for between-groups comparisons. The Fisher's exact test was used for comparison of the occurrence of lymphoma or plasma paraprotein in treated and untreated groups. Statistical analyses were conducted using GraphPad Prism v5.0 software.

plasma glucosylceramide = assay: Delayed treatment experiments: plasma glucosylceramide; type: in vivo, mouse; conditions: delayed treatment: mean age 7.3 months, 300 mg/kg daily for 5.4 months
Experimental: (§3) To investigate the potential effects of delayed treatment, eight Gaucher mice were exposed to Genz-112638 after 6 months of age. The animals received the drug for 6 months at a dose 300 mg/kg daily and were killed at 12 months of age (FIG. 1). A group of eight matched Gaucher disease control mice were given the base standard diet; these animals were monitored and otherwise treated identically with those animals with delayed exposure to the study drug.
(§4) Concentrations of β-D-glucosylceramide in plasma in the short-term tolerability study were conducted as previously published. β-D-glucosylceramide, β-D-glucosylsphingosine and ceramide concentrations in tissues and plasma samples of the principal intervention and delayed-treatment experiments were quantified as previously reported.

Gaucher mice [3] = assay: Main treatment experiments: lymphoma incidence in Gaucher mice; type: in vivo, mouse
Experimental: as §2

[4] = in vivo; cited from earlier work
GD mice [5] = assay: Delayed treatment experiments: lymphoid hyperplasia and lymphoma (histology); type: in vivo, mouse; conditions: delayed treatment: 300 mg/Kg daily, mean age 7.3 months, 5.4 months, total 9 mice
Experimental: as §3

[6] = tested on: individuals with non-neuronopathic Gaucher disease; conditions: Phase III, over two years, oral; cited from earlier work
plasma IgG = assay: Total IgG plasma concentrations (ELISA); type: in vivo, mouse; conditions: treated GD mice
Description: Total IgG ELISA kit (Affimetrix) was used to determine plasma IgG concentrations in selected groups of animals.

intracellular ceramide = conditions: cited from earlier work
[7] = tested on: plasma glucosylsphingosine; assay: Delayed treatment experiments: plasma glucosylsphingosine; type: in vivo, mouse; conditions: delayed treatment: mean age 7.3 months, 300 mg/kg daily for 5.4 months
Experimental: as §3, §4

[8] = tested on: plasma glucosylceramide (GL-1); assay: Short-term dose-range experiment in GD mice: plasma glucosylceramide; type: in vivo, mouse; conditions: 6 week-old GD mice, 150 mg/kg and 300 mg/kg orally for two weeks
Experimental: (§5) The inducible mouse model of type 1 Gaucher disease [Gba^tm1Karl/tm1KarlTg (Mx1-cre) 1Cgn/0 (MGI:3687965; MGI:2176073)[41]. The mating, induction with polyinosinic-polycytidylic (poly I:C) acid sodium salt solution and genotyping were conducted as previously described. Animals of genotype Gba^tm1Karl/tm1KarlTg (Mx1-cre) 1Cgn/0 are referred GD mice; induced mice with the Gba^tm1Karl/tm1Karl and Gba^tm1Karl/+ genotypes and background strain wild type animals served as age-matched controls. All mice here reported had been bred on a C57BL/6 and 129/sv background.
The drug GENZ 112638 (Genzyme) was formulated in a standard rodent food (TestDiet) at 0.075% and 0.15% w/w. A group of six GD mice received 150 mg/kg daily, a second group of six GD mice received the drug at 300 mg/kg daily, and eight age-sex matched GD animals were given a base diet (TestDiet). The animals received the drug for 14 days and were then killed for analysis of tissue lipids.
as §4

plasma ceramide = assay: Main treatment experiments in GD mice: plasma ceramide; type: in vivo, mouse; conditions: GD mice receiving the high dose
Experimental: as §5
GENZ 112638 was introduced at a mean age of 1.5 months, with access to the diet and water ad libitum. […] The health of the animals was checked daily; body weights and food consumption were monitored at intervals of three days. The humane endpoints were approved and established: (i) reduction of 20% or more of the greatest recorded body weight or (ii) the development of adverse manifestations (e.g. development of frank tumours or cachexia).
as §4

[9] = tested on: plasma β-D-glucosylsphingosine; assay: Main treatment experiments in GD mice: plasma glucosylsphingosine; type: in vivo, mouse; conditions: for plasma glucosylsphingosine: GD mice with intermittent treatment; for reduction of plasma glucosylsphingosine: 300 mg/kg/day
Experimental: as §5
(§6) GENZ 112638 was introduced at a mean age of 1.5 months, with access to the diet and water ad libitum. All experimental animals were housed in individually ventilated cages in groups of up to three mice within the same environmental conditions. The health of the animals was checked daily; body weights and food consumption were monitored at intervals of three days. The humane endpoints were approved and established: (i) reduction of 20% or more of the greatest recorded body weight or (ii) the development of adverse manifestations (e.g. development of frank tumours or cachexia).
as §4

[10] = tested on: plasma β-D-glucosylceramide; assay: Main treatment experiments in GD mice: plasma glucosylceramide; type: in vivo, mouse
Experimental: as §5, §6, §4

[11] = target: T1, 1-O-acylceramide synthase (Homo sapiens, UniProt Q8NCC3); conditions: cited from earlier work
T1 sequence (Q8NCC3 34-412): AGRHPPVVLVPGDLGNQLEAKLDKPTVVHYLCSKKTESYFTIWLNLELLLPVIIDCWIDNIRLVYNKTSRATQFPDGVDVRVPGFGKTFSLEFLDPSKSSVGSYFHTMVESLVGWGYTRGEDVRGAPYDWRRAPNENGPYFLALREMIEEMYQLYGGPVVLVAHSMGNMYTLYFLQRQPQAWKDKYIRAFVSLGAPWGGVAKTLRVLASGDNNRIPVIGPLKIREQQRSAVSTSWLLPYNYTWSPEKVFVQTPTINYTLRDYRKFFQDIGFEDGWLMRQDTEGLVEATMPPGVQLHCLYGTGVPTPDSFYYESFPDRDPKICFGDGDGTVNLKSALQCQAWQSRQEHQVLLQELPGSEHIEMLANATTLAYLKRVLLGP

[12] = tested on: AKT protein kinase-mammalian target of rapamycin signaling; conditions: polycystic kidney disease; cited from earlier work
[13] = tested on: (GBA^D409/null) knock-in model of Gaucher disease; conditions: 75 or 150 mg/kg daily orally for 10 weeks, cited from earlier work
[14] = mouse, in vivo, 300 mg/kg
Description: as §6

GD mice [15] = assay: Delayed treatment experiments: M protein species (electrophoresis and immunofixation); type: in vivo, mouse; conditions: delayed treatment: 300 mg/Kg daily months 7-12, age group 12-18 months
Experimental: as §3, §1

[16] = tested on: glycosidases and other enzymes involved in sphingolipid metabolism; conditions: in vitro; cited from earlier work
[17] = target: T2, UDP-glucosylceramide synthase (Homo sapiens, UniProt Q16739); conditions: read-out: IC50 (potency, UDP-glucosylceramide synthase); cited from earlier work
T2 sequence (Q16739 1-394): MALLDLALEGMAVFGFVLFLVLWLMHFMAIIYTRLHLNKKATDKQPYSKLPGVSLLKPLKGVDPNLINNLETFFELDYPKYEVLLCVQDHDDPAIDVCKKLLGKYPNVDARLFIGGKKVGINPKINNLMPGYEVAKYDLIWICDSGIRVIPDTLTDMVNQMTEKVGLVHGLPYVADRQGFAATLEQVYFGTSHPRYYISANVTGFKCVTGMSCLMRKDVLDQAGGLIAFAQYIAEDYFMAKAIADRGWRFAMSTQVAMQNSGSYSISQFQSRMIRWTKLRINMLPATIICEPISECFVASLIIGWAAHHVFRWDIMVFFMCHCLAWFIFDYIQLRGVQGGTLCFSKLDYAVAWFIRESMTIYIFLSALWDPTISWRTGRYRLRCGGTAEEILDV

GD mice [18] = assay: Main treatment experiments: histology and immunohistochemistry of tissues; conditions: for plasma-cell (CD138+) infiltration in the red pulp of the spleen: treated versus age-matched untreated GD mice
Experimental: A total of 22 induced Gaucher disease mice received GENZ 112638 at 300 mg/kg daily: four mice received the treatment over 3 months, four mice received the drug for 6 months, six mice received the diet for 7-9 months. […] A group of 8 mice received the drug for 10 months and were killed at 14 months of age. To serve as a control group, 45 age- and sex-matched induced Gaucher mice were given a standard diet.
Visceral organs (spleen, liver, lungs and kidneys) as well as long bones, lymph nodes, and, where relevant, tumours, were collected by dissection and either frozen or fixed in 4% w/v paraformaldehyde or 10% buffered formalin and processed in paraffin-embedded blocks for further analysis. Sample of long bones were fixed in 4% w/v paraformaldehyde and decalcified in EDTA for two weeks. Spleen and liver weights were recorded fresh at post mortem. Samples of venous blood were collected from the tail vein at 3 monthly intervals during the experimental protocol. Complete blood counts (CBC) were determined using an automated haematology analyser (SYSMEX XT 2000i). EDTA plasma or serum samples collected at post mortem were stored at −80° C. until thawed for analysis.
Paraffin-embedded sections of 3.5 μm were stained routinely with haematoxylin and eosin. Immunohistochemical staining was carried out using rat anti-mouse CD45R/B220 (R&D systems), anti-mouse CD3 (Abcam), CD138 (BD, Pharmingen), rat anti-mouse Mac-3 M3/84 clone (BD, Pharmingen) and rabbit anti-mouse Ki-67 (Abcam) primary antibodies. Staining was realized by the avidin-biotin peroxidase technique (Vectastatin ABC elite kit), and developed using diaminobenzidine with cresyl violet or haematoxylin counterstaining.
Lymphoproliferation in serial sections of spleen, liver, lungs and kidneys was estimated by a scoring system modified as described by Elmore [42]. Sections were reviewed blindly for lymphoma and lymphoproliferative reactions by a board-certified veterinary pathologist.

[19] = age group 0-6 months, total 4 mice
[20] = age group 7-12 months, total 10 mice
[21] = age group 13-18 months, total 8 mice

CCCCN1C[C@H](O)[C@@H](O)[C@H](O)[C@H]1CO [N-butyldeoxynojirimycin]
therapeutic action in clinical studies [1]: small therapeutic action

bis{N-[(1R,2R)-2-(2,3-dihydro-1,4-benzodioxin-6-yl)-2-hydroxy-1-(pyrrolidin-1-ylmethyl)ethyl]octanamide} (2R,3R)-2,3-dihydroxybutanedioate [eliglustat tartrate]
detectable monoclonal paraprotein species (Gaucher mice [2]; listed as GENZ 112638): suppressed the appearance
detectable monoclonal paraprotein species (Gaucher mice [2]; listed as Genz-112638): none and prevents development of monoclonal paraproteins
M-protein (number of mice) (Gaucher mice [2]; [19]): 0
M-protein (number of mice) (Gaucher mice [2]; [20]): 0
M-protein (number of mice) (Gaucher mice [2]; [21]): 0
M-protein (number of mice) (Gaucher mice [2]; all age groups, total 22 mice): 0
plasma concentration of glucosylceramide (plasma glucosylceramide): decreased
occurrence of B cell lymphoma, myeloma or other tumours (Gaucher mice [3]; 22 Gaucher mice exposed for 2-10 months, 300 mg/kg, early administration, listed as GENZ 112638, 300 mg/kg): No B cell lymphomas or other tumours were found; also recorded: completely prevented
Lymphoma (number of mice) (Gaucher mice [3]; [19]): 0
Lymphoma (number of mice) (Gaucher mice [3]; [20]): 0
Lymphoma (number of mice) (Gaucher mice [3]; [21]): 0
Lymphoma (number of mice) (Gaucher mice [3]; all age groups, total 22 mice): 0
safety and tolerability [4]: safe and tolerable
Lymphoid hyperplasia (number of mice) (GD mice [5]): 4
Lymphoma/myeloma (number of mice) (GD mice [5]): 1
Lymphoid hyperplasia (number of mice) (GD mice [5]; listed as GENZ 112638): five
Lymphoma/myeloma (number of mice) (GD mice [5]; listed as GENZ 112638): one and did not completely prevent
key clinical manifestations of the disease [6]: clearly improved
total plasma immunoglobulin G concentrations (plasma IgG): decreased significantly
intracellular ceramide levels (intracellular ceramide): does not inhibit 1-O-acylceramide synthase or increase intracellular ceramide levels
plasma concentration of glucosylsphingosine [7]: decreased
plasma glucosylceramide (GL-1) concentration [8]: decrease the concentration of glucosylceramide
plasma glucosylceramide (GL-1) concentration ([8]; listed as GENZ 112638): dose-dependent decrease
mean plasma ceramide concentrations (plasma ceramide): slightly increased
plasma glucosylsphingosine ([9]; listed as GENZ 112638): raised above the reference range
plasma glucosylsphingosine ([9]; listed as Genz-112638): not significantly different
plasma β-D-glucosylsphingosine concentration ([9]; GD mice, 300 mg/kg daily, early continuous treatment, listed as GENZ 112638, 300 mg/kg): decreased; also recorded: notable decrease
reduction of plasma glucosylsphingosine ([9]; GD mice, after 6 months of treatment, p<0.01): ~5 fold
reduction of plasma glucosylsphingosine ([9]; GD mice, after 9 months of treatment, p<0.05): ~2 fold
glucosylceramide concentration in plasma ([10]; GD mice with intermittent treatment for 10 months, listed as GENZ 112638): raised above the reference range
glucosylceramide concentration in plasma ([10]; GD mice with intermittent treatment for 10 months, listed as Genz-112638): increased plasma concentration
plasma β-D-glucosylceramide concentration ([10]; GD mice, 300 mg/kg daily, early continuous treatment): decreased
glucosylceramide concentration in plasma ([10]; GD mice, after 10 months treatment, p<0.01): reduced
glucosylceramide/ceramide ratio ([10]; treated GD animals compared with untreated): markedly diminished
inhibition of 1-O-acylceramide synthase [11]: does not inhibit 1-O-acylceramide synthase
AKT protein kinase-mTOR signaling and cell-cycle control [12]: repress
glucosylceramide in tissues ([13]; 10 week-old and 7 month-old mice): dose-dependent reduction
infiltration of abnormal macrophages in tissues [13]: decreased infiltration
animals withdrawn early from the study as a result of weight loss [14]: Two
M protein (number of mice with monoclonal paraprotein or oligoclonal immunoglobulin secretion) (GD mice [15]): 5
M protein (number of mice with monoclonal paraprotein or oligoclonal immunoglobulin secretion) (GD mice [15]; listed as GENZ 112638): five
inhibitory properties towards glycosidases and other enzymes involved in sphingolipid metabolism [16]: minimal inhibitory properties
IC50 [17]: 24 nM
Ki-67 staining (proliferation marker), spleen (GD mice [18]; GD mice treated for 10 months, listed as Genz-112638): less evident; also recorded: decreased population of lymphoid cells
lipid-engorged macrophages in tissue sections (GD mice [18]; GD mice, liver and spleen): fewer lipid-engorged macrophages
pathological macrophages staining for the Mac 3 antigen (GD mice [18]; tissues of GD mice, listed as GENZ 112638): markedly decreased or absent; also recorded: prevented the florid appearance of pathological macrophages
cellularity of the spleens (GD mice [18]; treated Gaucher mice): slight decrease
plasma-cell (CD138+) infiltration in the red pulp of the spleen (GD mice [18]; listed as GENZ 112638): less evident
plasma-cell (CD138+) infiltration in the red pulp of the spleen (GD mice [18]; listed as Genz-112638): decreased number of CD138^+ lymphocytes
inflammatory changes in the liver, lungs and kidneys (GD mice [18]; treated versus untreated GD mice): reduced or absent
splenic architecture (H&E; B220/CD3 staining) (GD mice [18]; treated versus untreated GD mice, listed as GENZ 112638): preservation of the splenic architecture
splenic architecture (H&E; B220/CD3 staining) (GD mice [18]; treated versus untreated GD mice, listed as Genz-112638): preserved white pulp architecture
spleen and liver weights (GD mice [18]; treated versus untreated Gaucher mice): did not differ
